As usually defined, the pIC50 is the negative decadic logarithm of the IC50, by convention in mol/L.

pIC50: −log10 of the molar value.

The experiment concerns human leukocytes (LTB4 production, calcium ionophore stimulated). Put plainly: Human Leukocyte LTB4 Inhibition Assay. Type of experiment: cell-based. Conditions: Leukocyte, LTB4 by ELISA, read-out: LTB4 HLA IC50. Here is the method:
Human Leukocyte LTB4 Inhibition Assay
A non-limiting example of a human leukocyte inhibition assay is as follows; Blood was drawn from consenting human volunteers into heparanized tubes and 3% dextran 0.9% saline ⅓ rd volume added. After sedimentation of red blood cells a hypotonic lysis of remaining red blood cells was performed and leukocytes sedimented at 1200 rpm. The pellet was resuspended at 1.25×10^5 cells/ml and aliquoted into wells containing 1 μL 100% DMSO (vehicle) or 2.5 μL drug in 100% DMSO. Samples were incubated for 5 minutes at 37° C. and 2 μL calcium ionophore […] (from a 50 mM DMSO stock diluted just prior to the assay in Hanks balanced salt solution (Invitrogen)) to 1.25 mM) was added, solutions mixed and incubated for 30 minutes at 37° C. Samples were centrifuged at 1,200 rpm (−200×g) for 10 minutes at 4° C., plasma removed and a 1:4 dilution assayed for LTB4 concentration using ELISA (Assay Designs). Drug concentrations to achieve 50% inhibition (IC50's) of vehicle LTB4 were determined by nonlinear regression (Graphpad Prism) of % inhibition versus log drug concentration.
Turning to `CCOC(=O)c1cc2cc(Cn3cc(C(O)(CC)C(F)(F)F)nn3)ccn2c1-c1ccnc(C)c1` (stereo not drawn) [Compound 1-63, 7-[4-(1-Hydroxy-1-trifluoromethyl-propyl)-[1,2,3]triazol-1-ylmethyl]-3-(2-methyl-pyridin-4-yl)-indolizine-2-carboxylic acid ethyl ester], the pIC50 is > 6.52.
`CCC(O)(c1cn(Cc2ccn3c(-c4ccc(F)cc4)c(CN4CCOCC4)cc3c2)nn1)C(F)(F)F` (stereo not drawn) [Compound 1-38, 1,1,1-Trifluoro-2-{1-[3-(4-fluoro-phenyl)-2-morpholin-4-ylmethyl-indolizin-7-ylmethyl]-1H-[1,2,3]triazol-4-yl}-butan-2-ol]: the negative-log IC50 (pIC50) is 6.00 to 6.52.
`CCC(O)(c1cn(Cc2ccn3c(-c4ccc(F)cc4)c(CS(C)(=O)=O)cc3c2)nn1)C(F)(F)F` (stereo not drawn) [Compound 1-34, 1,1,1-Trifluoro-2-{1-[3-(4-fluoro-phenyl)-2-methanesulfonylmethyl-indolizin-7-ylmethyl]-1H-[1,2,3]triazol-4-yl}-butan-2-ol]: the pIC50 is > 6.52.
Next, `CCC(O)(c1cn(Cc2ccn3c(-c4ccc(Cl)cc4)c(C(N)=O)cc3c2)nn1)C(F)(F)F` (stereo not drawn) [Compound 1-28, 3-(4-Chloro-phenyl)-7-[4-(1-hydroxy-1-trifluoromethyl-propyl)-[1,2,3]triazol-1-ylmethyl]-indolizine-2-carboxylic acid amide]: > 6.52; `CCOC(=O)c1cc2cc(Cn3cc(C(O)(CC)C(F)(F)F)nn3)ccn2c1-c1cncnc1` (stereo not drawn) [Compound 1-73, 7-[4-(1-Hydroxy-1-trifluoromethyl-propyl)-[1,2,3]triazol-1-ylmethyl]-3-pyrimidin-5-yl-indolizine-2-carboxylic acid ethyl ester]: > 6.52; `CCOC(=O)c1cc2cc(Cn3cc(C(O)(CC)C(F)(F)F)nn3)ccn2c1-c1ccc(OCC)nc1` (stereo not drawn) [Compound 1-56, 3-(6-Ethoxy-pyridin-3-yl)-7-[4-(1-hydroxy-1-trifluoromethyl-propyl)-[1,2,3]triazol-1-ylmethyl]-indolizine-2-carboxylic acid ethyl ester]: > 6.52.
Next, `CCOC(=O)c1cc2cc(Sc3ncc(C(O)(CC)C(F)(F)F)s3)ccn2c1` (stereo not drawn) [Compound 1-1, 7-[5-(1-Hydroxy-1-trifluoromethyl-propyl)-thiazol-2-ylsulfanyl]-indolizine-2-carboxylic acid ethyl ester]: > 6.52; `CCOC(=O)c1cc2cc(Cn3cc(C(O)(CC)C(F)(F)F)nn3)ccn2c1-c1ccc(=O)n(C)c1` (stereo not drawn) [Compound 1-62, 7-[4-(1-Hydroxy-1-trifluoromethyl-propyl)-[1,2,3]triazol-1-ylmethyl]-3-(1-methyl-6-oxo-1,6-dihydro-pyridin-3-yl)-indolizine-2-carboxylic acid ethyl ester]: 6.00 to 6.52.
For `CCC(O)(c1cn(Cc2ccn3c(-c4ccc(OC)nc4)c(C(N)=O)cc3c2)nn1)C(F)(F)F` (stereo not drawn) [Compound 1-35, 7-[4-(1-Hydroxy-1-trifluoromethyl-propyl)-[1,2,3]triazol-1-ylmethyl]-3-(6-methoxy-pyridin-3-yl)-indolizine-2-carboxylic acid amide], the pIC50 is 6.00 to 6.52.
Next, `CCC(O)(c1cn(Cc2ccn3c(-c4ccc(F)cc4)c(C(N)=O)c(Cl)c3c2)nn1)C(F)(F)F` (stereo not drawn) [Compound 1-61, 1-Chloro-3-(4-fluoro-phenyl)-7-[4-(1-hydroxy-1-trifluoromethyl-propyl)-[1,2,3]triazol-1-ylmethyl]-indolizine-2-carboxylic acid amide]: > 6.52.
With `CCOC(=O)c1nc2cc(Cn3cc(C(O)(CC)C(F)(F)F)nn3)ccn2c1-c1ccc(F)cc1` (stereo not drawn) [Compound 1-13, 3-(4-Fluoro-phenyl)-7-[4-(1-hydroxy-1-trifluoromethyl-propyl)-[1,2,3]triazol-1-ylmethyl]-imidazo[1,2-a]pyridine-2-carboxylic acid ethyl ester], the pIC50 is > 6.52.
The value for `CCC(O)(c1cn(Cc2ccn3c(-c4ccc(F)nc4)c(C#N)cc3c2)nn1)C(F)(F)F` (stereo not drawn) [Compound 1-32, 3-(6-Fluoro-pyridin-3-yl)-7-[4-(1-hydroxy-1-trifluoromethyl-propyl)-[1,2,3]triazol-1-ylmethyl]-indolizine-2-carbonitrile] was > 6.52; that for `CCC(O)(c1cn(Cc2ccn3c(-c4ccc(F)nc4)c(C(N)=O)cc3c2)nn1)C(F)(F)F` (stereo not drawn) [Compound 1-31, 3-(6-Fluoro-pyridin-3-yl)-7-[4-(1-hydroxy-1-trifluoromethyl-propyl)-[1,2,3]triazol-1-ylmethyl]-indolizine-2-carboxylic acid amide] was < 6.00.
The value for `CCC(O)(c1cn(Cc2ccn3c(-c4ccc(=O)n(C)c4)c(C(N)=O)cc3c2)nn1)C(F)(F)F` (stereo not drawn) [Compound 1-68, 7-[4-(1-Hydroxy-1-trifluoromethyl-propyl)-[1,2,3]triazol-1-ylmethyl]-3-(1-methyl-6-oxo-1,6-dihydro-pyridin-3-yl)-indolizine-2-carboxylic acid amide] was < 6.00; that for `CCC(O)(c1cn(Cc2ccn3c(-c4ccc(F)cc4)c(C(N)=O)cc3c2)nn1)C(F)(F)F` (single isomer, unassigned) [Compound 1-9, 3-(4-Fluoro-phenyl)-7-[4-(1-hydroxy-1-trifluoromethyl-propyl)-[1,2,3]triazol-1-ylmethyl]-indolizine-2-carboxylic acid amide] was > 6.52.
For the molecule `CCC(O)(c1cn(Cc2ccn3c(-c4ccc(F)cc4)c(C(C)(C)O)cc3c2)nn1)C(F)(F)F` (stereo not drawn) [Compound 1-7, 1,1,1-Trifluoro-2-{1-[3-(4fluoro-phenyl)-2-(1-hydroxy-1-methyl-ethyl)-indolizin-7-ylmethyl]-1H-[1,2,3]triazol-4-yl}-butan-2-ol], the pIC50 is > 6.52.
Next, `CCC(O)(c1cn(Cc2ccn3c(-c4cccc(F)c4)c(C(N)=O)cc3c2)nn1)C(F)(F)F` (stereo not drawn) [Compound 1-48, 3-(3-Fluoro-phenyl)-7-[4-(1-hydroxy-1-trifluoromethyl-propyl)-[1,2,3]triazol-1-ylmethyl]-indolizine-2-carboxylic acid amide]: > 6.52.
The value for `CCC(O)(c1cn(Cc2ccn3c(Cl)c(C#N)cc3c2)nn1)C(F)(F)F` (single isomer, unassigned) [Compound 1-88, 3-Chloro-7-[4-(1-hydroxy-1-trifluoromethyl-propyl)-[1,2,3]triazol-1-ylmethyl]-indolizine-2-carbonitrile] was > 6.52.
The value for `CCC(O)(c1cn(Cc2ccn3c(-c4ccnc(C)c4)c(C#N)cc3c2)nn1)C(F)(F)F` (stereo not drawn) [Compound 1-65, 7-[4-(1-Hydroxy-1-trifluoromethyl-propyl)-[1,2,3]triazol-1-ylmethyl]-3-(2-methyl-pyridin-4-yl)-indolizine-2-carbonitrile] was > 6.52; that for `CCC(O)(c1cn(Cc2ccn3c(-c4ccc(C)nc4)c(C#N)cc3c2)nn1)C(F)(F)F` (stereo not drawn) [Compound 1-72, 7-[4-(1-Hydroxy-1-trifluoromethyl-propyl)-[1,2,3]triazol-1-ylmethyl]-3-(6-methyl-pyridin-3-yl)-indolizine-2-carbonitrile] was > 6.52.
Turning to `CCC(O)(c1cn(Cc2ccn3c(-c4ccc(F)cc4)c(/C=C/C(=O)O)cc3c2)nn1)C(F)(F)F` (stereo not drawn) [Compound 1-41, (E)-3-{3-(4-Fluoro-phenyl)-7-[4-(1-hydroxy-1-trifluoromethyl-propyl)-[1,2,3]triazol-1-ylmethyl]-indolizin-2-yl}-acrylic acid], the pIC50 was 6.00 to 6.52.
The value for `CCC(O)(c1cn(Cc2ccn3c(-c4cccnc4)c(C#N)cc3c2)nn1)C(F)(F)F` (stereo not drawn) [Compound 1-26, 7-[4-(1-Hydroxy-1-trifluoromethyl-propyl)-[1,2,3]triazol-1-ylmethyl]-3-pyridin-3-yl-indolizine-2-carbonitrile] was > 6.52; that for `CCOC(=O)c1cc2cc(Cn3cc(C(O)(CC)C(F)(F)F)nn3)ccn2c1-c1cnn(C)c1` (stereo not drawn) [Compound 1-74, 7-[4-(1-Hydroxy-1-trifluoromethyl-propyl)-[1,2,3]triazol-1-ylmethyl]-3-(1-methyl-1H-pyrazol-4-yl)-indolizine-2-carboxylic acid ethyl ester] was > 6.52; that for `CCC(O)(c1cn(Cc2ccn3c(C(C)C)c(C#N)cc3c2)nn1)C(F)(F)F` (single isomer, unassigned) [Compound 1-81, 7-[4-(1-Hydroxy-1-trifluoromethyl-propyl)-[1,2,3]triazol-1-ylmethyl]-3-isopropyl-indolizine-2-carbonitrile] was > 6.52.
The value for `CCC(O)(c1cn(Cc2ccn3c(-c4ccc(F)cc4)c(C(N)=O)cc3c2)nn1)C(F)(F)F` (stereo not drawn) [Compound 1-6, 3-(4-Fluoro-phenyl)-7-[4-(1-hydroxy-1-trifluoromethyl-propyl)-[1,2,3]triazol-1-ylmethyl]-indolizine-2-carboxylic acid amide] was > 6.52.
The value for `CCOC(=O)c1cc2cc(Cn3cc(C(O)(CC)C(F)(F)F)nn3)ccn2c1-c1ccc(OC)nc1` (stereo not drawn) [Compound 1-36, 7-[4-(1-Hydroxy-1-trifluoromethyl-propyl)-[1,2,3]triazol-1-ylmethyl]-3-(6-methoxy-pyridin-3-yl)-indolizine-2-carboxylic acid ethyl ester] was > 6.52; that for `CCNCc1cc2cc(Cn3cc(C(O)(CC)C(F)(F)F)nn3)ccn2c1-c1ccc(F)cc1` (stereo not drawn) [Compound 1-60, 2-{1-[2-Ethylaminomethyl-3-(4-fluoro-phenyl)-indolizin-7-ylmethyl]-1H-[1,2,3]triazol-4-yl}-1,1,1-trifluoro-butan-2-ol] was < 6.00.

The record behind these values is patent US20130005721A1, “INDOLIZINE INHIBITORS OF 5-LIPOXYGENASE” (PANMIRA PHARMACEUTICALS, LLC, priority 2009, published 2013).
